Laboratory results from patent US20250205155A1, “FORMULATIONS COMPRISING MELPHALAN FLUFENAMIDE AND CYCLODEXTRIN” (Oncopeptides Innovation AB, priority 2022, published 2025).
“And” between values parts separate entries of the source, which are not always exact repeats. Equal values may be shown once. Where a name gives a salt, the structure may show the parent alone. Read-outs that look alike come from different tables or passages of the source.

Experiments:
[1] = Rate of dissolution of lyophilised Ex 1-excipient mixtures in 5% glucose solution, 15 seconds (HPLC); format: physicochemical; details: solution containing γCD
Procedure: (§1) A stock solution of each excipient was prepared in water (10 mg/mL). An aliquot of 400 μL (4 mg) of each stock solution was then transferred to a separate transparent 4 mL vial. The vials containing the stock solutions were then cooled and lyophilized using a Christ Alpha 2-4 LSC Plus instrument.
(§2) The mixtures were cooled and lyophilized overnight.
A 5% glucose solution (w/v in water) containing 0.08 mg/mL 3-methoxybenzoic as an internal standard was added to each vial containing a lyophilized Ex 1-excipient mixture. The vials were then mixed by shaking for 15 seconds. Approximately half of the solution was then transferred to a Whatman® Mini-UniPrep© syringeless filter and filtered according to the manufacturer's instructions. The filtrate was immediately transferred to a glass vial to prevent further dissolution.
HPLC analysis of each sample was performed using the same method as described in Example 1.

[2] = Ex 1 lyophilised with HPγCD: reconstitution and stability at infusion concentration; format: physicochemical; details: for reconstitution concentration: lyophilised with HPγCD (1:67 w/w), 0.9% saline, fully dissolved
Procedure: The weight ratio (w/w) of melphalan flufenamide (free base):hydroxypropyl-γ-cyclodextrin was 1:67. The mixture was stirred for 30 min at room temperature before being lyophilized overnight. A white, fluffy lyo-cake was formed. The lyophilized material was kept refrigerated for 5 months. 0.9% saline (9000 μL) was added to the lyo-cake and the mixture was vortexed for 1 min. The material was fully dissolved to make a 3.0 mg/mL solution. […] The reconstituted solution was diluted to 0.10 mg/mL in 0.9% saline. […] The stability of the approved drug product […] at 0.10 mg/mL in 0.9% saline after 17 hours at room temperature is approximately 56%.

[3] = Solubility of Ex 1 in aqueous solution in the absence of an excipient; details: aqueous solution without excipient, water
[4] = Stability of lyophilised Ex 1-excipient mixtures in 5% glucose solution (HPLC); format: physicochemical; details: 25° C. to 30° C. for 22 hours
Procedure: The following excipients were used: trehalose dihydrate, sucrose, polysorbate 80, α-cyclodextrin, β-cyclodextrin, propylene glycol, 2-hydroxypropyl-β-cyclodextrin, and γCD.
as §1, §2
1 mL of a 5% glucose solution (w/v in water) containing 0.08 mg/mL 3-methoxybenzoic as an internal standard was added to each vial containing a lyophilized Ex 1-excipient mixture. The vials were then mixed by shaking for 15 seconds, and then shaken occasionally for 5 minutes. The solutions were transferred to Whatman® Mini-UniPrep® syringeless filters and filtered according to the manufacturer's instructions. The filtrate was transferred to a glass vial to prevent further dissolution. These filtrates represent the starting concentrations of melphalan flufenamide for each solution (i.e. the to samples). The to samples were analysed by HPLC as described below and then stored at 25° C. to 30° C. for 22 hours. […]

[5] = Stability of Ex 1 / Ex 2 propylene glycol liquid formulations diluted in γCD saline or glucose solution; format: physicochemical
Procedure: Stock solutions containing 16 mg/mLγCD in […].
The samples were mixed by vortex for 10 seconds and then filtered through a 0.45 μm PTFE filter. The filtrates were analysed by HPLC immediately after sample preparation (i.e. at t0), and then after 2 hours, 5 hours, 7 hours or 18 hours of storage at RT (approximately 23° C.).

[6] = Stability of melphalan flufenamide drug product in γCD 5% glucose solutions at RT; format: physicochemical
Procedure: A stock solution of 23 mg/mL γCD 5% glucose solution (w/v in water) was used to prepare working solutions containing 1 mg, 5 mg, 10 mg, 15 mg, 18 mg, 20 mg or 23 mg/mL γCD.
Approximately 50 mg of the melphalan flufenamide drug product (containing approximately 1 mg of melphalan flufenamide) was transferred to […] different 4 mL clear glass vials, followed by addition of 1 mL of a γCD working solution. The solutions were stirred for 5 minutes. The solutions were then filtered through a 0.45 μm PTFE filter. The filtrates were analysed by HPLC immediately after sample preparation (i.e. at t0), and then after 2 hours, 5 hours, 7 hours or 18 hours of storage at RT (approximately 23° C.).
HPLC analysis was performed using an Agilent 1260 series HPLC. Analyses were performed using a Poroshell column 3×50 mm EC-C18 column with a gradient of 5% to 97% acetonitrile, 0.1% formic acid over 3 min and a flow of 1 mL/min. An injection volume 0.2 μL was used. The melphalan flufenamide concentration in each sample was determined by HPLC analysis using a calibration curve for melphalan flufenamide.

[7] = format: physicochemical
Procedure: The samples were analysed after 0 h and the samples were stored at room temperature or in the fridge and analysed after 18 h. The remaining API (i.e. the remaining melphalan flufenamide) was reported relative to the area under the curve at t=0 h.
(§3) Analytical HPLC was carried out on an Agilent Series 1100 system using a Kinetex XB C18 (2.6 μm, 3.0×50 mm) column with 0.1% TFA in MiliQ H2O/MeCN as mobile phase (flow 1 mL/min). 5-97% MeCN in 3 minutes.

[8] = Stability of Ex 2 in glucose or saline with and without 16 mg/mL HPγCD at room temperature; format: physicochemical; details: 5 hours at room temperature
Procedure: Stock solutions of 16 mg/mL hydroxypropyl-γ-cyclodextrin in 5% glucose and in 0.9% saline were prepared. 20 mg/mL (free base) solution of the compound of Example 2 in propylene glycol was prepared.
To a 2 mL clear vial was added the amounts of each stock solution according to the Table 4 below.
The samples were stored at room temperature and analysed after 0, 2, 5 and 23 h on HPLC. The degradation of the compound was reported relative to the area under the curve at time=0 h. The percentage figure in Table 5 below represents the proportion of remaining compound of Ex 2.
as §3

[9] = Ex 1 lyophilised with HPγCD in different ratios: reconstitution and stability; format: physicochemical; details: HPγCD weight ratio 1:16, 1:20, 1:24 or 1:28, 20 hours at room temperature
Procedure: A 10 wt % solution of hydroxypropyl-γ-cyclodextrin (1750 mg) in t-BuOH/water 1:1 (15.75 g) and a 1:1 tBuOH/water solution were prepared. […] The solutions were lyophilized for 4 d.
The lyophilized material of entries 1 to 4 of Table 10 was reconstituted with 0.9% saline to make 0.5 mg/mL, 1.0 mg/mL and 2.0 mg/mL reconstituted solutions. The lyophilized material fully dissolved in each reconstituted solution. Portions of the 0.5 mg/mL, 1.0 mg/mL and 2.0 mg/mL reconstituted solutions were then diluted to 0.10 mg/mL in 0.9% saline (infusion concentration) and these 0.10 mg/mL solutions, and also a samples of the 0.5 mg/mL reconstituted solutions, were analyzed by HPLC after 0, 4 and 20 hours at room temperature.

[10] = Stability of melphalan flufenamide infusion solution with and without γCD at 5° C.; format: physicochemical; details: for decrease of melphalan flufenamide content: infusion solution not comprising γCD
Procedure: A control infusion solution containing no γCD was prepared in accordance with the following method, which is in line with the protocol set out in the U.S. Prescribing Information (USPI) for PEPAXTO® dated February 2021:
An infusion solution containing γCD was prepared according to steps 1 to 5 above, except that step 2 included a step of adding 320 mg of γCD into each vial (i.e. 1:16 ratio w/w of melphalan flufenamide to γCD) followed by mixing the powders by vortex. Steps 3 to 5 were then carried out as set out above.
Immediately after preparation of each infusion solution, 4 mL was withdrawn from the infusion bag and the melphalan flufenamide content was determined by HPLC analysis. These samples represent each infusion solution at the start of the stability study (i.e. the to samples). Each infusion bag was then stored at 5° C. […] The melphalan flufenamide content of each sample was determined by HPLC analysis.
The melphalan flufenamide content of each sample of infusion solution was determined by HPLC analysis using the method described in Example 5.

CCOC(=O)[C@H](Cc1ccc(F)cc1)NC(=O)[C@@H](N)Cc1ccc(N(CCCl)CCCl)cc1 [Ex 1, melphalan flufenamide hydrochloride]
Ex 1 dissolved within the first 15 seconds of mixing [1]: 68% | Ex 1 remaining ([2]; lyophilised with HPγCD 1:67 w/w, reconstituted 3.0 mg/mL, diluted to 0.10 mg/mL in 0.9% saline, 17 hours at room temperature): 91% | reconstitution concentration ([2]; hydrochloride): 3.0 mg/mL and 3 mg/mL | solubility [3]: < 400 µg/mL | decrease of melphalan flufenamide content relative to t0 ([4]; solution with γCD): 31% | Ex 1 remaining in solution ([4]; γCD 5% glucose solution, γCD:melphalan flufenamide about 4:1 w/w): 69%

[2H]C([2H])([2H])C([2H])([2H])OC(=O)[C@H](Cc1ccc(F)cc1)NC(=O)[C@@H](N)Cc1ccc(N(CCCl)CCCl)cc1 [Ex 2, (^2H5)ethyl (2S)-2-[(2S)-2-amino-3-{4-[bis(2-chloroethyl)amino]phenyl}propanamido]-3-(4-fluorophenyl)propanoate hydrochloride]
stability of Ex 2 in control solutions ([5]; 6% propylene glycol and saline only or 6% propylene glycol and 5% glucose only): poor stability | stability of Ex 2 in the presence of γCD ([5]; saline or 5% glucose solution, γCD about 16:1, 30:1, 80:1 w/w, hydrochloride): improved the stability

CCOC(=O)[C@H](Cc1ccc(F)cc1)NC(=O)[C@@H](N)Cc1ccc(N(CCCl)CCCl)cc1 [melphalan flufenamide, ethyl (2S)-2-[[(2S)-2-amino-3-[4-[bis(2-chloroethyl)amino]phenyl]propanoyl]amino]-3-(4-fluorophenyl)propanoate]
stabilisation by γCD ([6]; 1 to 23 equivalents of γCD (w/w), up to 18 hours): stabilised | stability by γCD ratio ([6]; 15, 18 and 23 equivalents of γCD (w/w)): most stable | melphalan flufenamide content retained ([7]; 0.2 mg/mL, HPγCD weight ratio 1:20, 1:24, 1:28, 1:32, 1:36 or 1:40, 18 hours at room temperature): over 78% | melphalan flufenamide content retained ([7]; 0.2 mg/mL, HPγCD weight ratio 1:20 to 1:40, 18 hours in a fridge): over 93% | melphalan flufenamide content retained ([7]; aqueous solution, HPγCD about 36:1 w/w, 18 hours at room temperature): 87% | average decrease of melflufen flufenamide content ([8]; saline infusion solution with hydroxypropyl-γCD): about 4% | average decrease of melflufen flufenamide content ([8]; saline infusion solution without HPγCD): about 40% | melphalan flufenamide content retained ([9]; 0.1 mg/mL): over 80% | melphalan flufenamide content retained ([9]; 0.5 mg/mL): > 90% | reconstitution concentration [2]: up to 3.0 mg/mL | decrease of melphalan flufenamide content relative to t0 ([10]; control infusion solution without γCD, 43 hours at 5° C.): approximately 10% | decrease of melphalan flufenamide content ([10]; 24 hours at 5° C.): approximately 7% | decrease of melphalan flufenamide content ([10]; 24 hours at 5° C., listed as melflufen flufenamide): about 5% | degradation rate ([10]; saline infusion solution comprising γCD, 5° C.): about 1 % per 24 hours | decrease of melflufen flufenamide content ([10]; saline infusion solution not comprising γCD, 48 hours at 5° C.): about 8% | decrease of melflufen flufenamide content ([10]; saline infusion solution with γCD, 24 hours at 5° C.): about 1% | decrease of melflufen flufenamide content ([10]; saline infusion solution with γCD, 48 hours at 5° C.): about 2%
